Experimental data: patent US20050250837A1, “Use of C-Raf inhibitors for the treatment of neurodegenerative diseases” (priority 2002, published 2005)

Legend:
cdk1 = cdk1 (Homo sapiens, UniProt P06493); details: Lackey et al., 2000; cited from earlier work
CDK5/p35 = CDK5/p35 (Homo sapiens, UniProt Q00535); assay: In vitro kinase assay, purified kinase (Upstate Kinase Profiling); type: biochemical; further: ATP 10 µM
Source text: (§1) (Lackey et al., 2000). […] A number of reports have implicated JNKs in the promotion of neuronal apoptosis both in vivo and in cell culture systems (Coffey et al., 2002). Although all three JNK proteins are expressed in neurons, the phosphorylation of c-jun is believed to be mediated by JNK2 or JNK3 (Bruckner et al., 2001; Bruckner and Estus, 2002; Coffey et al., 2002). […] In apoptotic neurons, JNK activation is mediated primarily by MKK7 (Eilers et al., 1998; Trotter et al., 2002).
(§2) In general, in vitro kinase assays were performed using purified kinase and synthetic substrates under standard conditions using the Kinase Profiling service of Upstate Biotechnology. Briefly, for each assay 5-10 mU of purified kinase was used. […] Kinase activity was quantified by measuring ^33P incorporation by spotting an aliquot on P30 filters, washing in 50 mM phosphoric acid and scintillation counting. The buffer composition for C-Raf, JNK1, JNK2, JNK3, MEK1, MKK6, MKK7 was 50 mM Tris pH7.5, 0.1 mM EGTA, 10 mM Mg acetate and [γ-^33P-ATP]. The peptide substrates used were as follows: For C-Raf, 0.66 mg/ml MBP; for cdks, 0.1 mg/ml histone H1; for JNKs, 3 uM ATF2; for MEK1, 1 uM MAPK2; for MKK6, 1 uM of SAPK2a and for MKK7, 2 uM JNK1α.

JNK2 = JNK2 (Homo sapiens, UniProt P45984); assay: as above; type: biochemical; further: ATP 10 µM
JNK2, sequence (P45984 whole entry, species assumed): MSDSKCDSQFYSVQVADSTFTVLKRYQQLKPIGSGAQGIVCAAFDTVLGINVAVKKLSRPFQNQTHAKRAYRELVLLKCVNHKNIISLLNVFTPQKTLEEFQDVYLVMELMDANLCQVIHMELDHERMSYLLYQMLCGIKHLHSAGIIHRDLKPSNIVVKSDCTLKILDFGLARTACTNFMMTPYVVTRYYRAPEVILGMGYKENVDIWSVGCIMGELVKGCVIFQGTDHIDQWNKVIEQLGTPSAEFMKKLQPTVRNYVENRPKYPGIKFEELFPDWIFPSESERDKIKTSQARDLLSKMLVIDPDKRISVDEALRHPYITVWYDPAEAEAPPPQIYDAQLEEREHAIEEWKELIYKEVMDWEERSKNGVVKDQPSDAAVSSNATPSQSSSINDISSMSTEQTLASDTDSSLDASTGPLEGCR
Source text: as §1, §2

CDK2/cyclinA = CDK2/cyclinA (Homo sapiens, UniProt P24941); assay: as above; type: biochemical; further: ATP 10 µM
Source text: as §1, §2

CDK1/cyclinB = CDK1/cyclinB (Homo sapiens, UniProt P06493); assay: as above; type: biochemical; further: ATP 10 µM
CDK1/cyclinB, sequence (P06493 whole entry, species assumed): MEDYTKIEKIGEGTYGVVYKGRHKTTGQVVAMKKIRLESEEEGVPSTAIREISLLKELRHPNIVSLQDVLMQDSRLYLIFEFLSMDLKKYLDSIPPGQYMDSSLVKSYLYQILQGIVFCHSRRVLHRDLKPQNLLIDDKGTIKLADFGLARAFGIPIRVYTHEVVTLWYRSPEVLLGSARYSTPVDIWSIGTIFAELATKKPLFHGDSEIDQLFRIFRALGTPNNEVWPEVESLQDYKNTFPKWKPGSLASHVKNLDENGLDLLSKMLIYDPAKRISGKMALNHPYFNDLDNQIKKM
CDK1/cyclinB, sequence (P14635 whole entry partner, species assumed): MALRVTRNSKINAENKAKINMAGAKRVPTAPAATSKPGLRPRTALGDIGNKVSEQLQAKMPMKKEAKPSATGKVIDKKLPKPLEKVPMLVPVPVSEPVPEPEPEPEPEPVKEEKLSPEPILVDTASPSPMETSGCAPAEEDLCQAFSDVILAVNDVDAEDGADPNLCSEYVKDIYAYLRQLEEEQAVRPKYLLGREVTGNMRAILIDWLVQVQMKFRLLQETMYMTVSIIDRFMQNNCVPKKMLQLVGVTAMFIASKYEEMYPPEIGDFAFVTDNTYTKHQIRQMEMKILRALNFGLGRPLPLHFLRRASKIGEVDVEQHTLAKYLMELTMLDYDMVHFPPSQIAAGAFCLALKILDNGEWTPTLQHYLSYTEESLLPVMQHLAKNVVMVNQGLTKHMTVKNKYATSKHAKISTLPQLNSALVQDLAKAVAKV
Source text: as §1, §2

CDK6/cyclinD3 = CDK6/cyclinD3 (Homo sapiens, UniProt Q00534); assay: as above; type: biochemical; further: ATP 10 µM
Source text: as §1, §2

MKK7 = MKK7 (Homo sapiens, UniProt O14733); assay: as above; type: biochemical; further: ATP 10 µM
MKK7, sequence (O14733 whole entry, species assumed): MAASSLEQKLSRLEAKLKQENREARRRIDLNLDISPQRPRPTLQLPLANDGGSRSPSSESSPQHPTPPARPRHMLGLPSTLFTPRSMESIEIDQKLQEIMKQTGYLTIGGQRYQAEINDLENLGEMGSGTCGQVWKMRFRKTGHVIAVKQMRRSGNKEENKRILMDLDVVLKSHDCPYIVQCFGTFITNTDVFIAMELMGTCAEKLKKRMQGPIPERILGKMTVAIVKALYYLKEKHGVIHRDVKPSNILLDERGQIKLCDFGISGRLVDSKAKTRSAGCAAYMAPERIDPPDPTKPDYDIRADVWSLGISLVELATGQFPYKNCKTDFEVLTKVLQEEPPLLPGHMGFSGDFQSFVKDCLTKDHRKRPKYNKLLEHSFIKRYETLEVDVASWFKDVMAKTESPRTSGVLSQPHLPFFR
Source text: as §1, §2

JNK3 = assay: as above; type: biochemical; details: 1 uM GW5074, ATP 10 uM; percentage of control without GW5074, mean +/- SD
Source text: as §1, §2

GSK3β = GSK3β (Homo sapiens, UniProt P49841); assay: as above; type: biochemical; further: ATP 10 µM
GSK3β, sequence (P49841 whole entry, species assumed): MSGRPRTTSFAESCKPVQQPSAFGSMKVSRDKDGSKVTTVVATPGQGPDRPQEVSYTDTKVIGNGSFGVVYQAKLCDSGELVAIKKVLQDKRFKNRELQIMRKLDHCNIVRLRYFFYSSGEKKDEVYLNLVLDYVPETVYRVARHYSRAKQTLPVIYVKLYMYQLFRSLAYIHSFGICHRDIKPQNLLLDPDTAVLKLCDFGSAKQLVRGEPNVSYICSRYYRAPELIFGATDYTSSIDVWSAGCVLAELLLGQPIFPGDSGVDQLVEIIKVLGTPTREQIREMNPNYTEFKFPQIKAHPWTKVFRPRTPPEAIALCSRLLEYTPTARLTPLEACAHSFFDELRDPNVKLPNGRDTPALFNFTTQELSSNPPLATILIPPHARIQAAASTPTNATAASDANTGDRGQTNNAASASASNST
Source text: as §1, §2

MEK1 = MEK1 (Homo sapiens, UniProt Q02750); assay: as above; type: biochemical; further: ATP 10 µM
MEK1, sequence (Q02750 whole entry, species assumed): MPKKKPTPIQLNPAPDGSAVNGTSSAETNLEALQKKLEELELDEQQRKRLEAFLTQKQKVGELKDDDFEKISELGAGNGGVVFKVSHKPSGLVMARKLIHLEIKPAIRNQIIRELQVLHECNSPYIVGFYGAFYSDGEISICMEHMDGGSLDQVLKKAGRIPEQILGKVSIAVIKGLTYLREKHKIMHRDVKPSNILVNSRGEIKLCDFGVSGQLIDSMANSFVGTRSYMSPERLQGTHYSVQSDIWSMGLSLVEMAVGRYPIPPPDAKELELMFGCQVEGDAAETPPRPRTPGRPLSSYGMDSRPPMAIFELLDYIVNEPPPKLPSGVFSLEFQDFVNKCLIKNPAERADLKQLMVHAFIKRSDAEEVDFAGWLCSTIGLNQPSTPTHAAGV
Source text: as §1, §2

CDK2/cyclinE = CDK2/cyclinE (Homo sapiens, UniProt P24941); assay: as above; type: biochemical; further: ATP 10 µM
Source text: as §1, §2

JNK1 = JNK1 (Homo sapiens, UniProt P45983); assay: as above; type: biochemical; further: ATP 10 µM
JNK1, sequence (P45983 whole entry, species assumed): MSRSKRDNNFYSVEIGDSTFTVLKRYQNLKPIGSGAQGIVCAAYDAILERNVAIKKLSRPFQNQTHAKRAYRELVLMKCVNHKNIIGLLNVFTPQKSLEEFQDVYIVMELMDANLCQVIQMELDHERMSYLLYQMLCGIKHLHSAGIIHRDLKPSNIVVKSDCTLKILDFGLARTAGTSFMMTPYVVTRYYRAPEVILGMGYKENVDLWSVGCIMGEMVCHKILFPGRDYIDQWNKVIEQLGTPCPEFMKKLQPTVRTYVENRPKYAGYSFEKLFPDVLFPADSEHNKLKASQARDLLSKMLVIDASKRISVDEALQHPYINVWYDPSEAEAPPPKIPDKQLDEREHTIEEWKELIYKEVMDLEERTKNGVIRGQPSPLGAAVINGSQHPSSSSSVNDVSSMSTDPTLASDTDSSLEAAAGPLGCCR
Source text: as §1, §2

MKK6 = MKK6 (Homo sapiens, UniProt P52564); assay: as above; type: biochemical; further: ATP 10 µM
MKK6, sequence (P52564 whole entry, species assumed): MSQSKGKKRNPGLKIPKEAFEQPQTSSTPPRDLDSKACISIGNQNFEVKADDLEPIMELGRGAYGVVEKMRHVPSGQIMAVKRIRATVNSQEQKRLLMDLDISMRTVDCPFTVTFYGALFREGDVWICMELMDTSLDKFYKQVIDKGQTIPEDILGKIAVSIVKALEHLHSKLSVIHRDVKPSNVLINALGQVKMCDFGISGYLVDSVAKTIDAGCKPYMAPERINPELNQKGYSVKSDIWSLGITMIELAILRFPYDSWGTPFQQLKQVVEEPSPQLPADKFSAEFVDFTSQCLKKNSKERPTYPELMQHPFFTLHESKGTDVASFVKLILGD
Source text: as §1, §2

Forkhead = Forkhead dephosphorylation in LK; type: cell-based, rat; details: data not shown
Procedure: The best-studied anti-apoptotic pathway in neurons is the PI-3 kinase-Akt signaling pathway (D'Mello et al., 1997; Dudek et al., 1997; Miller et al, 1997a). IGF-1, a potent survival-promotic factor for granule neurons mediates its effect by activating the PI-3 kinase-Akt pathway (Datta et al., 1997; Dudek et al., 1997; D'Mello et al., 1998). […] Switching cerebellar granule neurons from serum-containing HK medium in which they are cultured and allowed to mature, to serum-free LK or HK medium, causes a rapid downregulation of Akt phosphorylation and activity, which can be prevented by IGF-1 (Kumari et al., 2001). […] The same blot was reprobed with an antibody against phospho-Gskβ. Also loaded on the gel were lysates from untreated cultures (maintained in medium containing serum and high K+) and a culture treated for 1 hour with 25 ng/ml IGF-1. […] GSK3βis a proapoptotic molecule that is activated during apoptosis in many neuronal and normeuronal systems. Under survival promoting conditions GSK3β is kept inactivated by phosphorylation, a modification that can be induced by Akt. […] Another proapoptotic molecule that is phosphorylated and inactivated by Akt is the transcription factor, Forkhead ([…] et al., 2002). […] Switching of neurons to LK medium leads to a rapid downregulation of Akt activity within 2 hours.

C-Raf = molecular target: T1, C-Raf (Rattus norvegicus, UniProt P11345); assay: C-Raf Ser259 phosphorylation in neuronal cultures, Western blot; type: cell-based; details: LK + 1 uM GW5074, 0-30 min
T1 construct: Activities of endogenous C-Raf and B-Raf activity was assayed by measuring the ability of kinase immunoprecipitated from neuronal lysates; endogenous in cells; host or cells: primary rat cerebellar granule neurons
T1 sequence (P11345 whole entry): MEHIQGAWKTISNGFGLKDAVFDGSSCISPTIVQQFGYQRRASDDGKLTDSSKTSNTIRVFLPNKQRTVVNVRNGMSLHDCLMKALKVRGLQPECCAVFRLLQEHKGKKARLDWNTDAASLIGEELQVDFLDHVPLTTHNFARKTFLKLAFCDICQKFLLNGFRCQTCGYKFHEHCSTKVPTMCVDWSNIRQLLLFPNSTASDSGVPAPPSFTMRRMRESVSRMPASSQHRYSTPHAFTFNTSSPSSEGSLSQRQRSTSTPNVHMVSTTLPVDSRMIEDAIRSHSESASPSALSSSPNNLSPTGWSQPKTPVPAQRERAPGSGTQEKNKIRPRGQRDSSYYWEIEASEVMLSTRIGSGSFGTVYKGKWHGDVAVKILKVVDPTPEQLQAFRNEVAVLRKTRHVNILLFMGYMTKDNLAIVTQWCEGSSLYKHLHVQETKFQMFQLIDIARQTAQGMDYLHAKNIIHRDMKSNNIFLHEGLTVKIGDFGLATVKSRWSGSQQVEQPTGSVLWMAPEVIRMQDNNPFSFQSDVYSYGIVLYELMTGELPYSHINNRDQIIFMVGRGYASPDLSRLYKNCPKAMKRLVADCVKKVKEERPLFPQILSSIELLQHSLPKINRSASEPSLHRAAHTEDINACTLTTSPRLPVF
Procedure: The cultures were lysed and the lysate subjected to Western blot analysis using a phopho-Ser259-specific antibody.
For whole-cell lysates, the culture medium was discarded, the neurons washed twice with ice-cold phosphate-buffered saline (PBS), and lysed in lysis buffer (1% Triton, 20 mM Tris-HCl (pH 7.5), 150 mM NaCl, 1 mM Na2EDTA, 1 mM EGTA, 2.5 mM sodium pyrophosphate, 1 mM beta-glycerophosphate, 1 mM Na3VO4, 1 μg/ml leupeptin and 1× protease inhibitor mixture). Protein concentrations were measured using a Bradford protein assay kit (Bio-Rad), and equivalent amounts of protein were mixed with 6×SDS-PAGE sample buffer. Following heating at 95° C. for 5 min, proteins were subjected to SDS-polyacrylamide gel electrophoresis and transferred electrophoretically to polyvinylidene difluoride membrane (PVDF; Bio Rad). After staining with Ponceau S to verify uniformity of protein loads/transfer, the membranes were analyzed for immunoreactivity. Incubation with primary antibodies was performed overnight at 4° C. and with secondary antibodies for 1 h at room temperature. Immunoreactivity was developed by enhanced chemiluminescence (ECL; Amersham) and visualized by autoradiography. All antibodies were from Cell Signaling.

mice = assay: 3-Nitropropionic acid (3-NP) model of Huntington's disease, striatal lesions; type: in vivo; details: GW5074 5 mg/kg body weight intraperitoneally
Source text: 3-Nitropropionic acid (3-NP) administration in rodents and nonhuman primates has served as a useful experimental model for HD (reviewed in Brouillet et al., 1999). 3-NP is an irreversible inhibitor of succinate dehydrogenase (SDH; Complex II), which causes prolonged mitochondrial energy impairment and replicates most of the clinical and pathophysiological hallmarks of HD including selective striatal degeneration, spontaneous choreiform and dystonic movements (Brouillet et al., 1999).
Mice were purchased from Charles River (Wilmington, Mass.). 3-NP was dissolved in water and the solution brought to pH 7.4 with sodium hydroxide. 3NP was administered to 8-week old B6CBA male mice in ten intraperitoneal injections (50 mg/kg twice a day for 5 days). […] Control animals received saline injections. On the day following the 5 days of injection, mice were deeply anesthetized, intracardially perfused, brains removed, post fixed in 4% paraformaldehyde and cryoprotected. Coronal sections were cut on a cryostat at 50 micron and stained for Nissl substance (cresyl violet).

CDK5/p35, sequence (Q00535 whole entry, species assumed): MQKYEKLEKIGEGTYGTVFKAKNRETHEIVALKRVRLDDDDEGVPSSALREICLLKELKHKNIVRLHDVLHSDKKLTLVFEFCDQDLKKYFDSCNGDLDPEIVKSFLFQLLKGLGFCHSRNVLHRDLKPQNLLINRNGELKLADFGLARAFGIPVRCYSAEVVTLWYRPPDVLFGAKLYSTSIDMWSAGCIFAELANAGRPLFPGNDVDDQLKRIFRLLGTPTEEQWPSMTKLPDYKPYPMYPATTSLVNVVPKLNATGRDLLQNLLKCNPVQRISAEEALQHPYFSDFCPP
CDK5/p35, sequence (Q15078 whole entry partner, species assumed): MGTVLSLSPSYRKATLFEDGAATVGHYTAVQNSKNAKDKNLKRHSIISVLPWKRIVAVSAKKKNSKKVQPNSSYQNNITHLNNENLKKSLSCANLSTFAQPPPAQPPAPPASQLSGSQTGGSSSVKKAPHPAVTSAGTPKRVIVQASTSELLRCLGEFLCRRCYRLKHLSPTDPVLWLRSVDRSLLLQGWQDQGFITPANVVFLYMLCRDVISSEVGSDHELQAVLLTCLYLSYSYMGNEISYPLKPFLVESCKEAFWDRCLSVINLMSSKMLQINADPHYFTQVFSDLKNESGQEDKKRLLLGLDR
cdk1, sequence (P06493 whole entry, species assumed): as the sequence (P06493 whole entry, species assumed) above
cdk1, sequence (P14635 whole entry partner, species assumed): as the sequence (P14635 whole entry partner, species assumed) above

SMILES: O=C1Nc2ccc(I)cc2C1=Cc1cc(Br)c(O)c(Br)c1 [GW5074, 5-Iodo-3-[(3,5-dibromo-4-hydroxyphenyl)methylene]-2-indolinone]
- effect on activity of cdk1 (cdk1): no effect
- activity at 1 µM (CDK5/p35): 94 ± 2%
- activity at 1 µM (JNK2): 91 ± 4%
- activity at 1 µM (CDK2/cyclinA): 99%
- activity at 1 µM (CDK1/cyclinB): 90 ± 12%
- activity at 1 µM (CDK6/cyclinD3): 98 ± 1%
- activity at 1 µM (MKK7): 104 ± 8%
- % ACTIVITY JNK3 (JNK3): 89 ± 9%
- activity at 1 µM (GSK3β): 81 ± 6%
- activity at 1 µM (MEK1): 94 ± 4%
- activity at 1 µM (CDK2/cyclinE): 100 ± 5%
- activity at 1 µM (JNK1): 94 ± 3%
- activity at 1 µM (MKK6): 91 ± 4%
- dephosphorylation of Forkhead in LK (Forkhead): reduces the dephosphorylation
- phosphorylation of C-Raf at Ser259 (C-Raf): rapid increase in Ser259 phosphorylation
- 3-NP-induced striatal degeneration (mice): completely prevented
